From the NIST ThermoML archive (doi:10.1016/j.fluid.2008.03.004)

Assay: xn = mol fraction of the nth substance listed
Details: 101 kPa, Liquid; for speed of sound: Sing-around technique in a fixed-path interferometer

COC(C)(C)C [2-methoxy-2-methylpropane] + Cc1ccc(C)cc1
Details	mass density [kg/m3]	speed of sound [m/s]
288.15 K, x1 = 0.051	859.904	1337.8
288.15 K, x1 = 0.111	853.391	1325
288.15 K, x1 = 0.199	843.55	1302.9
288.15 K, x1 = 0.297	832.629	1278.6
288.15 K, x1 = 0.394	821.398	1253
288.15 K, x1 = 0.5	808.782	1223.9
288.15 K, x1 = 0.591	797.744	1199.5
288.15 K, x1 = 0.7	784.294	1169.8
288.15 K, x1 = 0.799	771.481	1140.7
288.15 K, x1 = 0.898	758.534	1112.1
288.15 K, x1 = 0.949	751.828	1096.4
288.15 K, x1 = 1	744.861	1083.4
290.65 K, x1 = 0.051	857.719	1327.2
290.65 K, x1 = 0.111	851.187	1314.2
290.65 K, x1 = 0.199	841.317	1292.2
290.65 K, x1 = 0.297	830.36	1267.7
290.65 K, x1 = 0.394	819.092	1242
290.65 K, x1 = 0.5	806.435	1212.8
290.65 K, x1 = 0.591	795.358	1188.4
290.65 K, x1 = 0.7	781.856	1158.4
290.65 K, x1 = 0.799	768.993	1129.2
290.65 K, x1 = 0.898	755.997	1100.5
290.65 K, x1 = 0.949	749.262	1084.7
290.65 K, x1 = 1	742.259	1071.6
293.15 K, x1 = 0.051	855.534	1316.8
293.15 K, x1 = 0.111	848.983	1303.7
293.15 K, x1 = 0.199	839.08	1281.6
293.15 K, x1 = 0.297	828.088	1257
293.15 K, x1 = 0.394	816.783	1231.1
293.15 K, x1 = 0.5	804.082	1201.9
293.15 K, x1 = 0.591	792.963	1177.3
293.15 K, x1 = 0.7	779.412	1147.2
293.15 K, x1 = 0.799	766.5	1117.9
293.15 K, x1 = 0.898	753.452	1089
293.15 K, x1 = 0.949	746.689	1073.2
293.15 K, x1 = 1	739.654	1060
295.65 K, x1 = 0.051	853.348	1306.5
295.65 K, x1 = 0.111	846.775	1293.1
295.65 K, x1 = 0.199	836.841	1271
295.65 K, x1 = 0.297	825.813	1246.2
295.65 K, x1 = 0.394	814.47	1220.2
295.65 K, x1 = 0.5	801.723	1191
295.65 K, x1 = 0.591	790.564	1166.2
295.65 K, x1 = 0.7	776.96	1135.9
295.65 K, x1 = 0.799	763.998	1106.6
295.65 K, x1 = 0.898	750.898	1077.5
295.65 K, x1 = 0.949	744.102	1061.7
295.65 K, x1 = 1	737.036	1048.5
298.15 K, x1 = 0.051	851.161	1296.3
298.15 K, x1 = 0.111	844.568	1282.7
298.15 K, x1 = 0.199	834.598	1260.5
298.15 K, x1 = 0.297	823.534	1235.5
298.15 K, x1 = 0.394	812.151	1209.4
298.15 K, x1 = 0.5	799.359	1180.1
298.15 K, x1 = 0.591	788.159	1155.2
298.15 K, x1 = 0.7	774.504	1124.7
298.15 K, x1 = 0.799	761.487	1095.3
298.15 K, x1 = 0.898	748.333	1066
298.15 K, x1 = 0.949	741.507	1050.2
298.15 K, x1 = 1	734.406	1036.9
300.65 K, x1 = 0.051	848.97	1286.1
300.65 K, x1 = 0.111	842.356	1272.2
300.65 K, x1 = 0.199	832.351	1249.9
300.65 K, x1 = 0.297	821.251	1224.8
300.65 K, x1 = 0.394	809.83	1198.7
300.65 K, x1 = 0.5	796.99	1169.2
300.65 K, x1 = 0.591	785.75	1144.2
300.65 K, x1 = 0.7	772.04	1113.5
300.65 K, x1 = 0.799	758.97	1084
300.65 K, x1 = 0.898	745.759	1054.6
300.65 K, x1 = 0.949	738.9	1038.8
300.65 K, x1 = 1	731.766	1025.4
303.15 K, x1 = 0.051	846.775	1275.9
303.15 K, x1 = 0.111	840.14	1261.8
303.15 K, x1 = 0.199	830.102	1239.4
303.15 K, x1 = 0.297	818.963	1214.2
303.15 K, x1 = 0.394	807.503	1187.9
303.15 K, x1 = 0.5	794.615	1158.4
303.15 K, x1 = 0.591	783.333	1133.2
303.15 K, x1 = 0.7	769.567	1102.4
303.15 K, x1 = 0.799	756.446	1072.8
303.15 K, x1 = 0.898	743.176	1043.3
303.15 K, x1 = 0.949	736.284	1027.4
303.15 K, x1 = 1	729.112	1013.9
305.65 K, x1 = 0.051	844.579	1265.7
305.65 K, x1 = 0.111	837.921	1251.5
305.65 K, x1 = 0.199	827.849	1228.9
305.65 K, x1 = 0.297	816.672	1203.5
305.65 K, x1 = 0.394	805.171	1177.3
305.65 K, x1 = 0.5	792.236	1147.6
305.65 K, x1 = 0.591	780.907	1122.3
305.65 K, x1 = 0.7	767.085	1091.3
305.65 K, x1 = 0.799	753.909	1061.6
305.65 K, x1 = 0.898	740.58	1031.9
305.65 K, x1 = 0.949	733.654	1016
305.65 K, x1 = 1	726.444	1002.4
308.15 K, x1 = 0.051	842.382	1255.6
308.15 K, x1 = 0.111	835.701	1241.2
308.15 K, x1 = 0.199	825.592	1218.5
308.15 K, x1 = 0.297	814.375	1193
308.15 K, x1 = 0.394	802.832	1166.6
308.15 K, x1 = 0.5	789.848	1136.9
308.15 K, x1 = 0.591	778.473	1111.4
308.15 K, x1 = 0.7	764.594	1080.2
308.15 K, x1 = 0.799	751.361	1050.5
308.15 K, x1 = 0.898	737.971	1020.6
308.15 K, x1 = 0.949	731.009	1004.7
308.15 K, x1 = 1	723.763	990.99
310.65 K, x1 = 0.051	840.182	1245.6
310.65 K, x1 = 0.111	833.476	1230.9
310.65 K, x1 = 0.199	823.333	1208.2
310.65 K, x1 = 0.297	812.074	1182.6
310.65 K, x1 = 0.394	800.49	1156.1
310.65 K, x1 = 0.5	787.456	1126.2
310.65 K, x1 = 0.591	776.037	1100.6
310.65 K, x1 = 0.7	762.097	1069.3
310.65 K, x1 = 0.799	748.806	1039.4
310.65 K, x1 = 0.898	735.351	1009.4
310.65 K, x1 = 0.949	728.354	993.41
310.65 K, x1 = 1	721.069	979.62
313.15 K, x1 = 0.051	837.972	1235.6
313.15 K, x1 = 0.111	831.247	1220.7
313.15 K, x1 = 0.199	821.068	1197.8
313.15 K, x1 = 0.297	809.766	1172.2
313.15 K, x1 = 0.394	798.142	1145.5
313.15 K, x1 = 0.5	785.055	1115.5
313.15 K, x1 = 0.591	773.588	1089.9
313.15 K, x1 = 0.7	759.588	1058.4
313.15 K, x1 = 0.799	746.238	1028.3
313.15 K, x1 = 0.898	732.717	998.27
313.15 K, x1 = 0.949	725.685	982.13
313.15 K, x1 = 1	718.357	968.16
315.65 K, x1 = 0.051	835.765	1225.6
315.65 K, x1 = 0.111	829.014	1210.5
315.65 K, x1 = 0.199	818.798	1187.5
315.65 K, x1 = 0.297	807.454	1161.8
315.65 K, x1 = 0.394	795.788	1135
315.65 K, x1 = 0.5	782.649	1104.9
315.65 K, x1 = 0.591	771.132	1079.1
315.65 K, x1 = 0.7	757.069	1047.5
315.65 K, x1 = 0.799	743.66	1017.3
315.65 K, x1 = 0.898	730.073	987.1
315.65 K, x1 = 0.949	723.003	970.91
315.65 K, x1 = 1	715.636	956.8
318.15 K, x1 = 0.051	833.554	1215.7
318.15 K, x1 = 0.111	826.778	1200.4
318.15 K, x1 = 0.199	816.524	1177.3
318.15 K, x1 = 0.297	805.138	1151.5
318.15 K, x1 = 0.394	793.428	1124.6
318.15 K, x1 = 0.5	780.236	1094.3
318.15 K, x1 = 0.591	768.668	1068.5
318.15 K, x1 = 0.7	754.544	1036.7
318.15 K, x1 = 0.799	741.073	1006.4
318.15 K, x1 = 0.898	727.417	976.02
318.15 K, x1 = 0.949	720.308	959.76
318.15 K, x1 = 1	712.897	945.54
320.65 K, x1 = 0.051	831.342	1205.8
320.65 K, x1 = 0.111	824.54	1190.3
320.65 K, x1 = 0.199	814.248	1167.1
320.65 K, x1 = 0.297	802.819	1141.1
320.65 K, x1 = 0.394	791.063	1114.2
320.65 K, x1 = 0.5	777.817	1083.8
320.65 K, x1 = 0.591	766.199	1057.9
320.65 K, x1 = 0.7	752.007	1025.9
320.65 K, x1 = 0.799	738.474	995.49
320.65 K, x1 = 0.898	724.747	964.93
320.65 K, x1 = 0.949	717.599	948.61
320.65 K, x1 = 1	710.141	934.24
323.15 K, x1 = 0.051	829.134	1196
323.15 K, x1 = 0.111	822.307	1180.4
323.15 K, x1 = 0.199	811.976	1157.1
323.15 K, x1 = 0.297	800.501	1131
323.15 K, x1 = 0.394	788.703	1103.9
323.15 K, x1 = 0.5	775.403	1073.3
323.15 K, x1 = 0.591	763.728	1047.4
323.15 K, x1 = 0.7	749.471	1015.2
323.15 K, x1 = 0.799	735.877	984.7
323.15 K, x1 = 0.898	722.077	954
323.15 K, x1 = 0.949	714.887	937.58
323.15 K, x1 = 1	707.381	922.97
